Results published in PubChem BioAssay (NCI).
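Results reflect a 48-hour exposure of cells in 96-well plates to compound at five concentrations. At the TGI there is no net growth.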

Assays:
Assay in all cases: NCI-60 cell line screen, 48 h
EKVX NSCLC = system: EKVX NSCLC
OVCAR-8 ovarian = system: OVCAR-8 ovarian
HOP-92 NSCLC = system: HOP-92 NSCLC
HCT-116 colon = system: HCT-116 colon
OVCAR-5 ovarian = system: OVCAR-5 ovarian
IGROV1 ovarian = system: IGROV1 ovarian
UACC-62 melanoma = system: UACC-62 melanoma
SF-268 CNS = system: SF-268 CNS
ACHN renal = system: ACHN renal
A549 NSCLC = system: A549 NSCLC

Compound	TGI (EKVX NSCLC) [µM]	TGI (OVCAR-8 ovarian) [µM]	TGI (HOP-92 NSCLC) [µM]	TGI (HCT-116 colon) [µM]	TGI (OVCAR-5 ovarian) [µM]	TGI (IGROV1 ovarian) [µM]	TGI (UACC-62 melanoma) [µM]	TGI (SF-268 CNS) [µM]	TGI (ACHN renal) [µM]	TGI (A549 NSCLC) [µM]
C[C@H](O)C(=O)SC[C@H](NC(=O)CC[C@@H](N)C(=O)O)C(=O)NCC(=O)O	> 100	> 100	> 100	> 100	> 100	> 100	> 100	> 100	> 100	
COc1cc(NCc2ccc3n2-c2ccccc2OC3)cc(OC)c1OC	45.1	> 100	51.3	> 100	> 100	70.5	43.4	> 100	> 100	> 100
CC(O)=NC(Cc1ccc2ccccc2c1)C(O)=NC(Cc1ccc(Cl)cc1)C(O)=NC(Cc1c[nH]c2ccccc12)C(O)=NC(CO)C(O)=NC(Cc1ccc(O)cc1)C(O)=NC(CCCN=C(N)N)C(O)=NC(CC(C)C)C(O)=NC(CCCN=C(N)N)C(=O)N1CCCC1C(O)=NC(C)C(=N)O (configuration not stated)	> 100	> 100	> 100		> 100	> 100	> 100	> 100	> 100	> 100
COc1ccc2c(c1)CC[C@@H]1[C@@H]2CC[C@]2(C)[C@@H](O)/C(=C/c3ccncc3)C[C@@H]12	70.6	28.2	28	30	30.7	30	29.6	28.2	67.2	41.1
CCOc1ccc2c(c1)NC(=O)C(C1OC(c3ccccc3)=CC1=O)S2 (configuration not stated)	62.3	55.7		88.2	36.5	53.2	35.1	63.1	> 100	46.8
CCOC(=O)[C@H]1C[C@]23CN(C(=O)OC(C)(C)C)CC[C@H]2CCC2(SCCCS2)[C@@H]3N1C	90.4	> 100	51	> 100	> 100	> 100	> 100	> 100	> 100	> 100
Cc1cc(-c2nc3cc(F)ccc3s2)ccc1NC(=O)C(C)N (configuration not stated)	7.03	8.62	9.41	6.57	5.52	4.76	7.7	9.5	7.83	7.72
C[n+]1c(-c2ccc(/C=N\NC(=O)c3ccc(C(=O)N/N=C/c4ccc(-c5cn6ccsc6[n+]5C)cc4)cc3)cc2)cn2ccsc21	34.3	40.8	36.4		36.3	40.7	47.1		33.3	57.8
COc1c2ccoc2c(S(=O)(=O)Nc2ccc(Cl)cc2)c2oc(C)cc(=O)c12	> 100	> 100	> 93.6	> 89.2	> 100	> 100	> 100	> 100		> 100
CCOc1cc(NC(C)=O)ccc1C(=O)NN1C(=O)CSC1c1ccc(O)c(OC)c1 (configuration not stated)	> 100	> 100	> 100	> 100	> 100	> 100	> 100	> 100	> 100	> 100
O=C1N[C@@H]2c3c(Br)sc(Br)c3C(=O)[C@@H]2N1	17.1	10.5	12.5	3.88	35.1	7.16	15.4	13.8	14.1	30
CN(C)CCC(C(=O)C(C)(C)C)c1ccccn1 (configuration not stated)	> 100	> 100	> 100	> 100	> 100	> 100	> 100	> 100	> 100	> 100
O=C(Nc1ccc(F)cc1)c1cc2ccc(O)cc2oc1=Nc1ccccc1F	40.8	36.7		> 100	> 100	36.1	> 100	> 100	> 100	
